Results on twelve compounds are retold here after paper PMC10045534, “Preparation and Evaluation of 6-Gingerol Derivatives as Novel Antioxidants and Antiplatelet Agents” (Antioxidants, 2023).

Broadly, the IC50 is the concentration that inhibits the measured activity by half.

In test [1] the target is T1, COX-1 enzyme (Ovis aries, UniProt P05979).
T1 construct: purchased BioVision (via VWR International Kft.) K548-100
T1 sequence (P05979 25-600): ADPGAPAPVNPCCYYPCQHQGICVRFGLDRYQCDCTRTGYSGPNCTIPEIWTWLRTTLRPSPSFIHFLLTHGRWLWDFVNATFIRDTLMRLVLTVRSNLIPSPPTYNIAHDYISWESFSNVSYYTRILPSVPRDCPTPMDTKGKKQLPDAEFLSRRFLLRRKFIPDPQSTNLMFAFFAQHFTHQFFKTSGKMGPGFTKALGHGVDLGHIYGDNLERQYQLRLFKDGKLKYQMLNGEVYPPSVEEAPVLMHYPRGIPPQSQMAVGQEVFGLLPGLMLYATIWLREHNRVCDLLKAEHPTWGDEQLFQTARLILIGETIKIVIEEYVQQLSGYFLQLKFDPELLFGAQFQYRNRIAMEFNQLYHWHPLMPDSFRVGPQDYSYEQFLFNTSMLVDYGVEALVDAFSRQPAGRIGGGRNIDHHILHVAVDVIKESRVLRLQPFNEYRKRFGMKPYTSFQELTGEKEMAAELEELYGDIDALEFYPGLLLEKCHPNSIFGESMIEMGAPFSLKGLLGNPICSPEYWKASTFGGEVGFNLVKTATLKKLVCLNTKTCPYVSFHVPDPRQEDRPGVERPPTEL
The test can be described thus: COX-1 inhibitor screening kit, fluorometric (BioVision K548-100). Format: biochemical. To be noted: for LLE(COX-1): LLE = pIC50 − logPpredicted; for IC50: mean ± SEM, n = 2. The method, then: COX-1 inhibitory activity was tested based on the fluorometric method as described in BioVision’s COX-1 inhibitor screening kit leafkit (K548-100, BioVision, CA, USA). Sample solutions were prepared by dissolving in DMSO and subsequently buffer, to get desired concentrations. In a 96-well white plate (655101, F-bottom, Grenier bio-one, Germany), 80 µL reaction mix (containing 76 µL assay buffer, 1 µL COX Probe, 2 µL COX cofactor, and 1 µL COX-1 enzyme) was added to 10 µL sample solution, DMSO and assay buffer to get test wells assigned for sample screen (S), negative control (N) and blank, respectively. An aliquot of 10 µL of arachidonic/NaOH solution was added to each well using a multi-channel pipette to initiate the reaction at the same time, and the fluorescence of each well was measured kinetically at Ex/Em 550/610 nm, at 25OC for 10 min using a FluoStar Optima plate reader (BMG Labtech, Ortenberg, Germany). The COX inhibitory activity of SC560, a standard inhibitor, was also determined.
The change in fluorescence between two points, T1 and T2 were determined, and relative inhibition was calculated according to the following equation:% Inhibition = (ΔN − ΔS)/ΔN × 100 (1) where N is the absorbance of the negative control, and S is that of the sample.
Dose-effect studies on the compounds were used to determine the concentration that inhibits 50% of the enzyme activity. The sigmoidal dose–response model was obtained by using the software GraphPad Prism 8.0 (La Jolla, CA, USA), and these were used to determine the IC50 values of the compounds.

Test [2] can be described thus: DPPH free radical scavenging assay. To be noted: for IC50: 30 min, room temperature, MeOH, mean ± SEM, n = 2, read-out: DDPH IC50. The method, then: All bioactivity data processing, including the calculation of inhibition percentage, mean and corresponding standard error of the mean (SEM), and IC50 values, was performed by GraphPad Prism 8.0 (La Jolla, CA, USA). IC50 values were calculated from the sigmoidal dose–response curves obtained by the log(inhibitor) vs. response and variable slope (DPPH assay) or the log(inhibitor) vs. normalised response and variable slope nonlinear regression model. On the results obtained, no statistical evaluation was performed; instead, differences greater than two-fold were considered relevant. Plotting of the antiplatelet and COX-1 inhibitory IC50 values and the linear regression of the data was performed by Microsoft Excel.
DPPH (1,10-diphenyl-2-picrylhydrazyl) was purchased from Thermo Fisher Scientific. DPPH free radical scavenging assay was performed with some modifications based on the method by previous study. Briefly, in a 96-well microplate, microdilutions of samples (100 µL, starting from 200 µM in HPLC grade MeOH) were made and 100 µL of DPPH reagent (100 µM in MeOH) was added. After 30 min at room temperature in the dark, the absorbance was measured at 550 nm using a FluoStar Optima plate reader (software version 2.20R2, BMG Labtech Ortenberg, Germany). For the blank control, MeOH was used. The scavenging activity was calculated as Inhibition (%) = (A0 − As)/A0 × 100, and IC50 values were calculated by GraphPad Prism 8.0 (La Jolla, CA, USA).

With `CCCCC[C@H](O)CC(=O)CCc1ccc(O)c(OC)c1` [Compound 1, (S)-5-hydroxy-1-(4-hydroxy-3-methoxyphenyl)decan-3-one], in test [1], the “LLE(COX-1)” value was 1.30 and the IC50 came out at 62.5 ± 23.8 µM. In addition, in test [2], the IC50 stood at 8.92 ± 0.46 µM.
The matching figures for `CCCCC[C@H](O)C[C@H](O)CCc1ccc(O)c(OC)c1` [Compound 5, (3R,5S)-1-(4-hydroxy-3-methoxyphenyl)decane-3,5-diol]: 1.27, 54.3 ± 6.5 µM and 6.51 ± 0.28 µM.
For the compound `CCCCCc1cc(/C=C/c2ccc(O)cc2)[nH]n1` [Compound 16, (E)-4-(2-(3-pentyl-1H-pyrazol-5-yl)vinyl)phenol], the “LLE(COX-1)” value in test [1] is −0.04. The IC50 was determined as 17.5 ± 0.1 µM in test [1] and 19 ± 1.63 µM in test [2].
As to `CCCCCc1cc(/C=C/c2ccc(O)cc2)on1` [Compound 18, (E)-4-(2-(3-pentylisoxazol-5-yl)vinyl)phenol], the IC50 in test [1] was more than 200 µM; in test [2], more than 100 µM. The “DPPH scavenging activity (in words)” value in test [2] was “inactive”.
On to `CCCCCCCNC(=O)CCc1ccc(O)c(OC)c1` [Compound 22], for which the IC50 in test [1] is more than 100 µM; in test [2], 14.1 ± 0.21 µM.
Regarding `CCCCCc1cc(CCc2ccc(O)c(OC)c2)[nH]n1` [Compound 14, 2-methoxy-4-(2-(3-pentyl-1H-pyrazol-5-yl)ethyl)phenol], in test [1], the “LLE(COX-1)” value was 0.74 and half-maximal inhibition (IC50) required 3.6 ± 0.2 µM. Besides, in test [2], the IC50 turned out to be 16.2 ± 0.46 µM.
`CCCCC/C=C/C(=O)CCc1ccc(O)c(OC)c1` [Compound 2, 6-shogaol]: in test [1], the “LLE(COX-1)” value is given as 0.81 and the concentration for half-maximal inhibition (IC50) came out at 9.8 ± 0.6 µM. In addition, the IC50 in test [2] came to 11.4 ± 0.49 µM.
As for `CCCCCCCC(=O)CCc1ccc(O)c(OC)c1` [Compound 3, 4,5-dihydro-6-shogaol], the “LLE(COX-1)” value in test [1] is 1.26. Moreover, the figures for the IC50 in test [1] and in test [2] were 4.4 ± 0.2 µM and 9.43 ± 0.16 µM, respectively.
`CCCCCc1cc(CCc2ccc(O)cc2)[nH]n1` [Compound 15, 4-(2-(3-pentyl-1H-pyrazol-5-yl)ethyl)phenol] came in with a half-maximal inhibitory concentration (IC50) in test [1] of more than 200 µM. Moreover, in test [2], the “DPPH scavenging activity (in words)” value is “inactive” and the IC50 is more than 200 µM.
`CCCCC[C@H](O)C[C@@H](O)CCc1ccc(O)c(OC)c1` [Compound 6, (3S,5S)-1-(4-hydroxy-3-methoxyphenyl)decane-3,5-diol]: in test [1], the “LLE(COX-1)” value is on record as 1.12 and the IC50 amounted to 76.2 ± 0.3 µM. Further, in test [2], the IC50 came to 13.82 ± 0.03 µM.
Regarding `CCCCCc1cc(/C=C/c2ccc(O)c(OC)c2)on1` [Compound 17, (E)-2-methoxy-4-(2-(3-pentylisoxazol-5-yl)vinyl)phenol], in test [1], the “LLE(COX-1)” value is recorded as 0.83 and 5.85 ± 0.04 µM corresponded to half-maximal inhibition (IC50). In test [2], the IC50 stood at 8.13 ± 0.21 µM.
For `CCCCCCCC(CCc1ccc(O)c(OC)c1)=NO` [Compound 4, 1-(4-hydroxy-3-methoxyphenyl)decan-3-one oxime], the “LLE(COX-1)” value in test [1] is listed as 0.48. The results for the IC50 in test [1] and in test [2] were 5.2 ± 0.3 µM and 8.56 ± 0.07 µM, respectively.
